Reference: US9399626B2, “2-thiopyrimidinones” (Pfizer Inc., priority 2011, dated 2016)
Counter-ions that a name gives are not always drawn.

Molecular target: T1, MPO (purified from human polynuclear leukocytes) (Homo sapiens, UniProt P05164)
T1 construct: purified from human polynuclear leukocytes; purchased Calbiochem/EMD Biosciences; host or cells: human polynuclear leukocytes (natural source)
Assay: MPO Amplex Red Activity Assay
Type: biochemical
Settings: Table 1, 2 μM H2O2, pH 7.4
Experimental: MPO Amplex Red Activity Assay.
MPO peroxidase activity was measured by monitoring the formation of resorufin generated from the oxidation of Amplex Red (10-Acetyl-3,7-dihydroxyphenoxazine) (Invitrogen, Carlsbad, Calif.) by MPO (Gomes, Fernandes et al. 2005). Assay mixtures (100 μL total volume) contained 50 mM NaPi pH 7.4, 150 mM NaCl, 1 mM DTPA (diethylenetriaminepentaacetic acid), 2% DMSO, 2 μM H2O2, 30 μM Amplex Red and the reaction was initiated by the addition of […] (purified from human polynuclear leukocytes and purchased from Calbiochem/EMD Biosciences, Gibbstown, N.J.). All assays were performed in 96-well, half-area, black, nonbinding surface, polystyrene plates (Corning) and the production of resorufin (excitation 530 nm, emission 580 nm) was monitored every 20 sec on a Spectramax M2 Microplate Spectrophotometer (Molecular Devices, Palo Alto, Calif.) equipped with Softmax Pro software (Molecular Devices, Palo Alto, Calif.). Reactions to determine the background reaction rate consisted of all assay components and 4 μL of 500 unit/mL bovine catalase (Sigma) in 50 mM KPi pH 7.0. The background rate was subtracted from each reaction progress curve. All data was analyzed using non-linear regression analysis in Microsoft Excel and Kaleidagraph (Synergy Software).
To determine inhibitor potency (kinact/KI) against MPO, the first 600 sec of the reaction progress curves were fit to equation 1, where Vo is the initial rate in RFU/sec and t is time in seconds, to obtain the first order rate constant for enzyme inactivation (kobs) at each inhibitor concentration.
[formula] Equation 1 is a variation of the standard equation for slow binding inhibition where the steady state velocity (Vs) is set to zero. Each kobs value was corrected for auto-inactivation of the enzyme by subtracting the kobs value for the uninhibited reaction. The corrected kobs values were then plotted versus inhibitor concentration ([I]) and fit to equation 2
[formula] where kinact is the maximal rate of inactivation and KI is the inhibitor concentration that yields half the rate of maximal inactivation (Copeland 2005).
Table 1 and (1A) below provides the myeloperoxidase inhibitory activity for the Examples below in accordance with the above-described assay.

T1 sequence (P05164 279-745 limits assumed): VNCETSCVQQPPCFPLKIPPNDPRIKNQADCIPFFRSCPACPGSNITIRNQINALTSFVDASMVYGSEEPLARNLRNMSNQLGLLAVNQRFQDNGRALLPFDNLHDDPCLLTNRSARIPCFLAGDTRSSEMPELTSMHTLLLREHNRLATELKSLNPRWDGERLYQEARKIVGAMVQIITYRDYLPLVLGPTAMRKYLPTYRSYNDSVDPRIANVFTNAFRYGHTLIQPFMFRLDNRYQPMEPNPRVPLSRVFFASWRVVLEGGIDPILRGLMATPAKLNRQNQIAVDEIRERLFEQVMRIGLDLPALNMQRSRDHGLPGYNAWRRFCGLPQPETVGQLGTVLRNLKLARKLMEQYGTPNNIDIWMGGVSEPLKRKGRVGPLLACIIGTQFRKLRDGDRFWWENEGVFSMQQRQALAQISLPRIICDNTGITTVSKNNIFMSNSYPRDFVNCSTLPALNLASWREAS
T1 sequence (P05164 165-273 limits assumed): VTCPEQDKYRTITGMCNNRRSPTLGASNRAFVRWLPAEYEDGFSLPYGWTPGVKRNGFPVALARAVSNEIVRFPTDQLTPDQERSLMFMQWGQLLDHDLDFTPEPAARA

Q: How did the “MPO kinact/Ki” value turn out when `COc1ccc(F)cc1-c1cc(=O)[nH]c(=S)n1CCO` [Example 28, 6-(5-fluoro-2-methoxyphenyl)-1-(2-hydroxyethyl)-2-thioxo-2,3-dihydropyrimidin-4(1H)-one] was run?
A: Its value is 13700 1/s per M.

Q: With `NC(=O)Cn1c(-c2cccc3[nH]ccc23)cc(=O)[nH]c1=S` [Example 29, 2-[6-(1H-indol-4-yl)-4-oxo-2-thioxo-3,4-dihydropyrimidin-1(2H)-yl]acetamide] as the compound, how does the “MPO kinact/Ki” value read?
A: Its value is 14900 1/s per M.

Q: Which “MPO kinact/Ki” value does the source give for `NCCCn1c(-c2cccc3[nH]ccc23)cc(=O)[nH]c1=S` [Example 30, 1-(3-aminopropyl)-6-(1H-indol-4-yl)-2-thioxo-2,3-dihydropyrimidin-4(1H)-one trifluoroacetate] here?
A: Its value is 5870 1/s per M.

Q: `NC(=O)Cn1c(-c2cccc3ccoc23)cc(=O)[nH]c1=S` [Example 31, 2-[6-(1-benzofuran-7-yl)-4-oxo-2-thioxo-3,4-dihydropyrimidin-1(2H)-yl]acetamide] was tested. Which “MPO kinact/Ki” value did it give?
A: Its value is 7680 1/s per M.

Q: How did the “MPO kinact/Ki” value turn out when `NCCCn1c(-c2n[nH]c3ccccc23)cc(=O)[nH]c1=S` [Example 32, 1-(3-aminopropyl)-6-(1H-indazol-3-yl)-2-thioxo-2,3-dihydropyrimidin-4(1H)-one formate] was run?
A: Its value is 2120 1/s per M.

Q: `COCCn1c(-c2c[nH]c3ccccc23)cc(=O)[nH]c1=S` [Example 33, 6-(1H-indol-3-yl)-1-(2-methoxyethyl)-2-thioxo-2,3-dihydropyrimidin-4(1H)-one] was tested. Which “MPO kinact/Ki” value did it give?
A: Its value is 4520 1/s per M.

Q: For `NCCCn1c(-c2cccc3ccoc23)cc(=O)[nH]c1=S` [Example 34, 1-(3-aminopropyl)-6-(1-benzofuran-7-yl)-2-thioxo-2,3-dihydropyrimidin-4(1H)-one hydrochloride], which “MPO kinact/Ki” value is on record?
A: The value was 13100 1/s per M.

Q: For `COCCn1c(-c2c[nH]c3ncccc23)cc(=O)[nH]c1=S` [Example 35, 1-(2-methoxyethyl)-6-(1H-pyrrolo[2,3-b]pyridin-3-yl)-2-thioxo-2,3-dihydropyrimidin-4(1H)-one], which “MPO kinact/Ki” value is on record?
A: Its value is 4110 1/s per M.

Q: For `NCCn1c(-c2csc3ccccc23)cc(=O)[nH]c1=S` [Example 36, 1-(2-aminoethyl)-6-(1-benzothien-3-yl)-2-thioxo-2,3-dihydropyrimidin-4(1H)-one hydrochloride], which “MPO kinact/Ki” value is on record?
A: The value was 5980 1/s per M.

Q: With `NC(=O)Cn1c(-c2ccc3c(c2)CCO3)cc(=O)[nH]c1=S` [Example 37, 2-[6-(2,3-dihydro-1-benzofuran-5-yl)-4-oxo-2-thioxo-3,4-dihydropyrimidin-1(2H)-yl]acetamide] as the compound, how does the “MPO kinact/Ki” value read?
A: The value was 6460 1/s per M.

Q: `NCCCn1c(-c2ccc3c(c2)CCO3)cc(=O)[nH]c1=S` [Example 38, 1-(3-aminopropyl)-6-(2,3-dihydro-1-benzofuran-5-yl)-2-thioxo-2,3-dihydropyrimidin-4(1H)-one hydrochloride] was tested. Which “MPO kinact/Ki” value did it give?
A: The value was 5240 1/s per M.

Q: With `O=c1cc(-c2csc3ccccc23)n(CCO)c(=S)[nH]1` [Example 39, 6-(1-benzothien-3-yl)-1-(2-hydroxyethyl)-2-thioxo-2,3-dihydropyrimidin-4(1H)-one] as the compound, how does the “MPO kinact/Ki” value read?
A: The value was 4520 1/s per M.

Q: For `O=c1cc(-c2cc3ccccc3s2)n(CCO)c(=S)[nH]1` [Example 40, 6-(1-benzothien-2-yl)-1-(2-hydroxyethyl)-2-thioxo-2,3-dihydropyrimidin-4(1H)-one], which “MPO kinact/Ki” value is on record?
A: The value was 6430 1/s per M.

Q: Which “MPO kinact/Ki” value does the source give for `COCCn1c(-c2cccc3c2OCC3)cc(=O)[nH]c1=S` [Example 41, 6-(2,3-dihydro-1-benzofuran-7-yl)-1-(2-methoxyethyl)-2-thioxo-2,3-dihydropyrimidin-4(1H)-one] here?
A: Its value is 5000 1/s per M.

Q: How did the “MPO kinact/Ki” value turn out when `O=c1cc(-c2cccc3ncsc23)n(CCO)c(=S)[nH]1` [Example 42, 6-(1,3-benzothiazol-7-yl)-1-(2-hydroxyethyl)-2-thioxo-2,3-dihydropyrimidin-4(1H)-one] was run?
A: The value was 6070 1/s per M.

Q: For `COc1ccc(C)cc1-c1cc(=O)[nH]c(=S)n1CCCN` [Example 43, 1-(3-aminopropyl)-6-(2-methoxy-5-methylphenyl)-2-thioxo-2,3-dihydropyrimidin-4(1H)-one hydrochloride], which “MPO kinact/Ki” value is on record?
A: The value was 34600 1/s per M.

Q: For `COc1ncc(C)cc1-c1cc(=O)[nH]c(=S)n1CC(N)=O` [Example 44, 2-[6-(2-methoxy-5-methylpyridin-3-yl)-4-oxo-2-thioxo-3,4-dihydropyrimidin-1(2H)-yl]acetamide], which “MPO kinact/Ki” value is on record?
A: The value was 3440 1/s per M.

Q: How did the “MPO kinact/Ki” value turn out when `COc1ncc(C)cc1-c1cc(=O)[nH]c(=S)n1CCCN` [Example 45, 1-(3-aminopropyl)-6-(2-methoxy-5-methylpyridin-3-yl)-2-thioxo-2,3-dihydropyrimidin-4(1H)-one trifluoroacetate] was run?
A: Its value is 4000 1/s per M.

Q: For `COCCn1c(-c2ccccc2CCO)cc(=O)[nH]c1=S` [Example 46, 6-[2-(2-hydroxyethyl)phenyl]-1-(2-methoxyethyl)-2-thioxo-2,3-dihydropyrimidin-4(1H)-one], which “MPO kinact/Ki” value is on record?
A: Its value is 1110 1/s per M.

Q: How did the “MPO kinact/Ki” value turn out when `O=c1cc(-c2cccc3c2OCCO3)n(CCO)c(=S)[nH]1` [Example 47, 6-(2,3-dihydro-1,4-benzodioxin-5-yl)-1-(2-hydroxyethyl)-2-thioxo-2,3-dihydropyrimidin-4(1H)-one] was run?
A: Its value is 2340 1/s per M.

Q: With `COc1cc(OC)cc(-c2cc(=O)[nH]c(=S)n2CCN)c1` [Example 48, 1-(2-aminoethyl)-6-(3,5-dimethoxyphenyl)-2-thioxo-2,3-dihydropyrimidin-4(1H)-one hydrochloride] as the compound, how does the “MPO kinact/Ki” value read?
A: Its value is 6570 1/s per M.

Q: How did the “MPO kinact/Ki” value turn out when `COCCn1c(-c2nc(C)ccc2OC)cc(=O)[nH]c1=S` [Example 49, 1-(2-methoxyethyl)-6-(3-methoxy-6-methylpyridin-2-yl)-2-thioxo-2,3-dihydropyrimidin-4(1H)-one] was run?
A: Its value is 2230 1/s per M.

Q: For `COCCn1c(-c2ccc(C)nc2OC)cc(=O)[nH]c1=S` [Example 50, 1-(2-methoxyethyl)-6-(2-methoxy-6-methylpyridin-3-yl)-2-thioxo-2,3-dihydropyrimidin-4(1H)-one], which “MPO kinact/Ki” value is on record?
A: Its value is 2610 1/s per M.

Q: With `COCCn1c(-c2cc(C)cnc2OC)cc(=O)[nH]c1=S` [Example 51, 1-(2-methoxyethyl)-6-(2-methoxy-5-methylpyridin-3-yl)-2-thioxo-2,3-dihydropyrimidin-4(1H)-one] as the compound, how does the “MPO kinact/Ki” value read?
A: The value was 6180 1/s per M.

Q: With `NCCOc1ccccc1-c1cc(=O)[nH]c(=S)n1CCO` [Example 52, 6-[2-(2-aminoethoxy)phenyl]-1-(2-hydroxyethyl)-2-thioxo-2,3-dihydropyrimidin-4(1H)-one formate] as the compound, how does the “MPO kinact/Ki” value read?
A: Its value is 33.4 1/s per M.

Q: Which “MPO kinact/Ki” value does the source give for `NCCn1c(-c2ccccc2OCCO)cc(=O)[nH]c1=S` [Example 53, 1-(2-aminoethyl)-6-[2-(2-hydroxyethoxy)phenyl]-2-thioxo-2,3-dihydropyrimidin-4(1H)-one hydrochloride] here?
A: The value was 3290 1/s per M.

Q: Which “MPO kinact/Ki” value does the source give for `COc1cc(OC)cc(-c2cc(=O)[nH]c(=S)n2CCO)c1` [Example 54, 6-(3,5-dimethoxyphenyl)-1-(2-hydroxyethyl)-2-thioxo-2,3-dihydropyrimidin-4(1H)-one] here?
A: The value was 7070 1/s per M.

Q: Which “MPO kinact/Ki” value does the source give for `COCCn1c(-c2ccccc2SC)cc(=O)[nH]c1=S` [Example 55, 1-(2-methoxyethyl)-6-[2-(methylthio)phenyl]-2-thioxo-2,3-dihydropyrimidin-4(1H)-one] here?
A: The value was 7740 1/s per M.

Q: For `COc1cc(F)ccc1-c1cc(=O)[nH]c(=S)n1CC(N)=O` [Example 56, 2-[6-(4-fluoro-2-methoxyphenyl)-4-oxo-2-thioxo-3,4-dihydropyrimidin-1(2H)-yl]acetamide], which “MPO kinact/Ki” value is on record?
A: Its value is 4770 1/s per M.

Q: With `COc1cc(F)ccc1-c1cc(=O)[nH]c(=S)n1CCCN` [Example 57, 1-(3-aminopropyl)-6-(4-fluoro-2-methoxyphenyl)-2-thioxo-2,3-dihydropyrimidin-4(1H)-one hydrochloride] as the compound, how does the “MPO kinact/Ki” value read?
A: Its value is 13100 1/s per M.

Q: `COc1ccc(F)cc1-c1cc(=O)[nH]c(=S)n1CCCN` [Example 58, 1-(3-aminopropyl)-6-(5-fluoro-2-methoxyphenyl)-2-thioxo-2,3-dihydropyrimidin-4(1H)-one hydrochloride] was tested. Which “MPO kinact/Ki” value did it give?
A: Its value is 11700 1/s per M.

Q: `COc1ccc(F)cc1-c1cc(=O)[nH]c(=S)n1CC(N)=O` [Example 59, 2-[6-(5-fluoro-2-methoxyphenyl)-4-oxo-2-thioxo-3,4-dihydropyrimidin-1(2H)-yl]acetamide] was tested. Which “MPO kinact/Ki” value did it give?
A: The value was 8480 1/s per M.
